Measurements published in ChEMBL document CHEMBL1155803 (Bioorg Med Chem, 2008).

How the values were obtained:
[1] = Antagonist activity at peripheral muscarinic M3 receptor in guinea pig longitudinal ileum assessed as effect on arecaidin propargyl ester-induced contraction after 1 hr; format: functional, tissue-based, Cavia porcellus
[2] = target: T1, Muscarinic acetylcholine receptor M2 (Homo sapiens, UniProt P08172); experiment: Displacement of [3H]N-methylscopolamine chloride from human cloned muscarinic M2 receptor expressed in CHOK1 cells; format: cell-based, CHO-K1
T1 sequence (P08172 whole entry): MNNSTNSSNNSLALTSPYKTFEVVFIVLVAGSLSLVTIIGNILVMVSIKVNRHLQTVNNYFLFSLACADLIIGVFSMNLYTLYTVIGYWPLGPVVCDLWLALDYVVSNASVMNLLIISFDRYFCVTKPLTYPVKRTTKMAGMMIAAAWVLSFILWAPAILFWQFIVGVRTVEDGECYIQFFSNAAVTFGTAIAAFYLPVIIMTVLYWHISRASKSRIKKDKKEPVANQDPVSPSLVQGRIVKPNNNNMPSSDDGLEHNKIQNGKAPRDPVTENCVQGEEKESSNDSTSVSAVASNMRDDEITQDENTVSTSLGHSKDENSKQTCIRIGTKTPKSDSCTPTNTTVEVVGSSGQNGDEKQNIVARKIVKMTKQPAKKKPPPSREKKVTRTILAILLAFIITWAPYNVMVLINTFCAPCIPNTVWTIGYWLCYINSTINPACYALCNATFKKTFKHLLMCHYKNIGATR

[3] = target: T2, Muscarinic acetylcholine receptor M1 (Homo sapiens, UniProt P11229); experiment: Displacement of [3H]N-methylscopolamine chloride from human cloned muscarinic M1 receptor expressed in CHOK1 cells; format: cell-based, CHO-K1
T2 sequence (P11229 whole entry): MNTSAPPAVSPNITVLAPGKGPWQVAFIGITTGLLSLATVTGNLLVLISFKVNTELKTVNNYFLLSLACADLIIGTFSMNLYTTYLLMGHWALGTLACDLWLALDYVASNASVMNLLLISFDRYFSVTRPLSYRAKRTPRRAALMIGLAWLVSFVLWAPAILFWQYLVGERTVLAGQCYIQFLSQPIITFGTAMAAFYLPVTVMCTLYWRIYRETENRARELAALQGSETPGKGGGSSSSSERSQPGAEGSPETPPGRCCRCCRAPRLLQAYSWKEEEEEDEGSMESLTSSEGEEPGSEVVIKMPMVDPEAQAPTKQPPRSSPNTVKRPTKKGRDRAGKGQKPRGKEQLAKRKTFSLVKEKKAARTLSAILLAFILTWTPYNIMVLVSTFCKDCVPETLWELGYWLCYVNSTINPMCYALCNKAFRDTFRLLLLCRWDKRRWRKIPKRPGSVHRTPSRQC

[4] = target: Muscarinic acetylcholine receptor M3 (Homo sapiens, UniProt P20309); experiment: Displacement of [3H]N-methylscopolamine chloride from human cloned muscarinic M3 receptor expressed in CHOK1 cells; format: cell-based, CHO-K1
[5] = Antagonist activity at peripheral muscarinic M4 receptor in rabbit vas deferens assessed as effect on McN-A-343-induced contraction after 1 hr; format: functional, tissue-based; conditions: Oryctolagus cuniculus, read-out: pA2 (converted)
[6] = target: T3, Muscarinic acetylcholine receptor M4 (Homo sapiens, UniProt P08173); experiment: Displacement of [3H]N-methylscopolamine chloride from human cloned muscarinic M4 receptor expressed in CHOK1 cells; format: cell-based, CHO-K1
T3 sequence (P08173 whole entry): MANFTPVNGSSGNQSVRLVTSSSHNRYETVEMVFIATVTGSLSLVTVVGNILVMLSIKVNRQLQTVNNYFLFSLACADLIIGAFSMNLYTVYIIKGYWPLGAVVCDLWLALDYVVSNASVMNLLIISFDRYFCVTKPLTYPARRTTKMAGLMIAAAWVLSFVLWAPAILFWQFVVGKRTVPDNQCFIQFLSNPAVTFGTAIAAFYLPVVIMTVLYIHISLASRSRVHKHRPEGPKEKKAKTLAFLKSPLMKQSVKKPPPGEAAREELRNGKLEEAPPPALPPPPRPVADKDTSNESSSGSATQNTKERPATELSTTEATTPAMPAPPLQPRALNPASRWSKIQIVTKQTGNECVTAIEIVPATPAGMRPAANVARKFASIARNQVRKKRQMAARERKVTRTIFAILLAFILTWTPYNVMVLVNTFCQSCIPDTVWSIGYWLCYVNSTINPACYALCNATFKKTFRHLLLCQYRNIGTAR

[7] = Antagonist activity at peripheral muscarinic M2 receptor in guinea pig left atrium assessed as effect on arecaidin propargyl ester-induced contraction after 1 hr; format: functional, tissue-based; conditions: Cavia porcellus, Cardiac atrium, read-out: pA2 (converted)

Sequence of Muscarinic acetylcholine receptor M3 (P20309 whole entry): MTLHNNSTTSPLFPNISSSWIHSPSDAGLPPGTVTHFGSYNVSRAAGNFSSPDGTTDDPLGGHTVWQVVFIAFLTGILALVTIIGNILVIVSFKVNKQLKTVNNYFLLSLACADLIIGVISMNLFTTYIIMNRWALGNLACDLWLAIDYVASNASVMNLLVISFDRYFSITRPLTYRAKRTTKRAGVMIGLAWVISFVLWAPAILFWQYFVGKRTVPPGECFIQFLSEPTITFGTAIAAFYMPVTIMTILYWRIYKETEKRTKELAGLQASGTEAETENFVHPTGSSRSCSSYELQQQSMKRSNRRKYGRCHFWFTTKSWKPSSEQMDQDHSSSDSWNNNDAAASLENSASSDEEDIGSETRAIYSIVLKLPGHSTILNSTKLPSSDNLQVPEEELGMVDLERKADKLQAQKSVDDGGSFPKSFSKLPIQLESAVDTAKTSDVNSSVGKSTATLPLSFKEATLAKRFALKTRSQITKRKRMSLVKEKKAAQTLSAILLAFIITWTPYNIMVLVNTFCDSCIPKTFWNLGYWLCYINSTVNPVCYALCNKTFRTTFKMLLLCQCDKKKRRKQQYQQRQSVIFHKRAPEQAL

Ki [2] [nM]	Ki [3] [nM]	Ki [4] [nM]	Ki [6] [nM]	Compound	pA2 [1]	Kb [5] [nM]	Kb [7] [nM]
				CN(C)[C@@H]1CCCC[C@H]1N(C)CC(=O)N1c2ccccc2C(=O)Nc2cccnc21.O=C(O)C(=O)O.O=C(O)C(=O)O	7.76		
				CN(C)[C@H]1CCCC[C@@H]1N(C)CC(=O)N1c2ccccc2C(=O)Nc2cccnc21.O=C(O)C(=O)O.O=C(O)C(=O)O	7.58		
				CN(C)[C@@H]1CCCC[C@@H]1N(C)CC(=O)N1c2ccccc2C(=O)Nc2cccnc21.O=C(O)C(=O)O.O=C(O)C(=O)O	7.57		
				CN(C)[C@H]1CCCC[C@H]1N(C)CC(=O)N1c2ccccc2C(=O)Nc2cccnc21.O=C(O)C(=O)O.O=C(O)C(=O)O	7.64		
1000	2290	> 10000	6610	CN1CCN(CC(=O)N2c3ccccc3C(=O)Nc3cccnc32)[C@@H]2CCCC[C@H]21 (relative stereo)	6.47	79.4	87.1
646	1450	> 10000	2450	CN1CCN(CC(=O)N2c3ccccc3C(=O)Nc3cccnc32)[C@@H]2CCCC[C@@H]21 (relative stereo)	6.01	60.3	741
				CN1CCN(CC(=O)N2c3ccccc3C(=O)Nc3cccnc32)CC1 [PIRENZEPINE]	6.88	8.91	339

Compound	Ki [2] [nM]	Ki [3] [nM]	Ki [4] [nM]	Ki [6] [nM]	pA2 [1]	Kb [5] [nM]	Kb [7] [nM]
CN(CCCCCCCCN(C)CCCCCCN(CC(=O)N1c2ccccc2C(=O)Nc2cccnc21)CC(=O)N1c2ccccc2C(=O)Nc2cccnc21)CCCCCCNCC(=O)N1c2ccccc2C(=O)Nc2cccnc21 [TRIPITRAMINE]		3.55	148	11.5	6.55	11.2	
